Laboratory results reported in patent US20260250318A1, “COMPOSITIONS AND METHODS FOR CROSSING THE BLOOD BRAIN BARRIER” (VOYAGER THERAPEUTICS, INC., priority 2022, published 2026).

Columns and labels:
brain = assay: Matured TTM-001 and TTM-002 variants, NGS enrichment in mouse brain; type: in vivo, mice; conditions: relative to AAV9 control
[1] = tested on: brains, heart, liver, muscle, and DRG of the NHPs; assay: Maturation of TTM-001 and TTM-002 capsids, NGS enrichment in NHP tissues; type: in vivo; conditions: relative to AAV9 control
Outline: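 Variants carry mutations within and flanking the loop IV peptide insert: positions 450–466 were triplet-randomized, while positions 449–466 received low-frequency point mutations. The combined pool went into two NHPs, and each peptide was scored by NGS enrichment ratio against AAV9.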

[2] = NGS fold-enrichment, mouse brain
[3] = NGS fold-enrichment of RNA, NHP brain
[4] = NGS fold-enrichment, NHP liver DNA
[5] = NGS fold-enrichment, NHP liver RNA
[6] = NGS fold-enrichment, NHP muscle
[7] = NGS fold-enrichment of matured AAV capsid variants, NHP brain, RNA
[8] = NGS fold-enrichment, brain of mice
[9] = NGS fold-enrichment, DRG of NHPs
[10] = NGS fold-enrichment, RNA, brain of NHPs
[11] = NGS fold-enrichment, heart of NHPs
[12] = NGS fold-enrichment, liver DNA of NHPs
[13] = NGS fold-enrichment, liver RNA of NHPs
[14] = NGS fold-enrichment, muscle of NHPs

For KTELRHDSPHKSGQNQQT, the “Fold Enrichment relative to AAV9, Brain (Mouse)” value (brain; [2]) was 6.588 fold, the “Fold Enrichment relative to AAV9, Brain (NHP)” value [1, 3] was 98.098 fold and the “Fold Enrichment relative to AAV9, DRG (NHP)” value ([1]; NGS fold-enrichment, NHP DRG) was 0.000 fold. The “Fold Enrichment relative to AAV9, Heart (NHP)” value ([1]; NGS fold-enrichment, NHP heart) was 0.019 fold, the “Fold Enrichment relative to AAV9, Liver DNA (NHP)” value [1, 4] was 0.007 fold and the “Fold Enrichment relative to AAV9, Liver RNA (NHP)” value [1, 5] was 0.000 fold. For the same sequence, the “Fold Enrichment relative to AAV9, Muscle (NHP)” value [1, 6] was 0.000 fold.

With KTELRSGSPHSKAQNQQT the “Fold Enrichment relative to AAV9, Brain (Mouse)” value (brain; mouse brain) was 57.814 fold, the “Fold Enrichment relative to AAV9, Brain (NHP)” value [1, 7] was 54.289 fold and the “Fold Enrichment relative to AAV9, DRG (NHP)” value ([1]; NHP DRG) was 0.000 fold. For the same sequence, the “Fold Enrichment relative to AAV9, Heart (NHP)” value ([1]; NHP heart) was 0.007 fold, the “Fold Enrichment relative to AAV9, Liver DNA (NHP)” value ([1]; NHP liver, DNA) was 0.239 fold and the “Fold Enrichment relative to AAV9, Liver RNA (NHP)” value ([1]; NHP liver, RNA) was 0.790 fold. The “Fold Enrichment relative to AAV9, Muscle (NHP)” value ([1]; NHP muscle) was 0.040 fold.

With KTELTSGSPHSKAQNQQT the “Fold Enrichment relative to AAV9, Brain (Mouse)” value (brain; [8]) was 100.311 fold, the “Fold Enrichment relative to AAV9, DRG (NHP)” value [1, 9] was 0.000 fold and the “Fold Enrichment relative to AAV9, Brain (NHP)” value [1, 10] was 74.548 fold. The “Fold Enrichment relative to AAV9, Heart (NHP)” value [1, 11] was 0.000 fold, the “Fold Enrichment relative to AAV9, Liver DNA (NHP)” value [1, 12] was 0.421 fold and the “Fold Enrichment relative to AAV9, Liver RNA (NHP)” value [1, 13] was 0.537 fold. The “Fold Enrichment relative to AAV9, Muscle (NHP)” value [1, 14] was 0.000 fold.

With KTELWHDSPHKSGQNQQT the “Fold Enrichment relative to AAV9, Brain (Mouse)” value (brain; [2]) was 9.915 fold, the “Fold Enrichment relative to AAV9, Brain (NHP)” value [1, 3] was 85.323 fold and the “Fold Enrichment relative to AAV9, DRG (NHP)” value ([1]; NGS fold-enrichment, NHP DRG) was 0.057 fold. The “Fold Enrichment relative to AAV9, Heart (NHP)” value ([1]; NGS fold-enrichment, NHP heart) was 0.020 fold, the “Fold Enrichment relative to AAV9, Liver DNA (NHP)” value [1, 4] was 0.243 fold and the “Fold Enrichment relative to AAV9, Liver RNA (NHP)” value [1, 5] was 0.000 fold. For the same sequence, the “Fold Enrichment relative to AAV9, Muscle (NHP)” value [1, 6] was 0.000 fold.

With KTEMKHDSPHKSGQNQQT the “Fold Enrichment relative to AAV9, Brain (Mouse)” value (brain; [2]) was 3.183 fold, the “Fold Enrichment relative to AAV9, Brain (NHP)” value [1, 3] was 240.075 fold and the “Fold Enrichment relative to AAV9, DRG (NHP)” value ([1]; NGS fold-enrichment, NHP DRG) was 0.000 fold. The “Fold Enrichment relative to AAV9, Heart (NHP)” value ([1]; NGS fold-enrichment, NHP heart) was 0.000 fold, the “Fold Enrichment relative to AAV9, Liver DNA (NHP)” value [1, 4] was 0.000 fold and the “Fold Enrichment relative to AAV9, Liver RNA (NHP)” value [1, 5] was 0.000 fold. The “Fold Enrichment relative to AAV9, Muscle (NHP)” value [1, 6] was 0.000 fold.

In the case of KTENASGSPHSKAQNQQT, the “Fold Enrichment relative to AAV9, Brain (Mouse)” value (brain; mouse brain) is reported as 88.439 fold, the “Fold Enrichment relative to AAV9, Brain (NHP)” value [1, 7] is reported as 58.187 fold and the “Fold Enrichment relative to AAV9, DRG (NHP)” value ([1]; NHP DRG) is reported as 0.000 fold. The “Fold Enrichment relative to AAV9, Heart (NHP)” value ([1]; NHP heart) was 0.038 fold, the “Fold Enrichment relative to AAV9, Liver DNA (NHP)” value ([1]; NHP liver, DNA) was 0.129 fold and the “Fold Enrichment relative to AAV9, Liver RNA (NHP)” value ([1]; NHP liver, RNA) was 0.371 fold. The “Fold Enrichment relative to AAV9, Muscle (NHP)” value ([1]; NHP muscle) was 0.000 fold.

KTENGSASPHSKALNQQT (KTFNGSASPHSKALNQQT) was tested, and the “Fold Enrichment relative to AAV9, Brain (Mouse)” value (brain; [2]) was 31.855 fold, the “Fold Enrichment relative to AAV9, Brain (NHP)” value [1, 3] was 84.258 fold and the “Fold Enrichment relative to AAV9, DRG (NHP)” value ([1]; NGS fold-enrichment, NHP DRG) was 0.000 fold. The “Fold Enrichment relative to AAV9, Heart (NHP)” value ([1]; NGS fold-enrichment, NHP heart) was 0.122 fold, the “Fold Enrichment relative to AAV9, Liver DNA (NHP)” value [1, 4] was 0.037 fold and the “Fold Enrichment relative to AAV9, Liver RNA (NHP)” value [1, 5] was 0.104 fold. The “Fold Enrichment relative to AAV9, Muscle (NHP)” value [1, 6] was 0.000 fold.

KTENISGSPHSKAQNQQT was tested, and the “Fold Enrichment relative to AAV9, Brain (Mouse)” value (brain; [8]) was 83.118 fold, the “Fold Enrichment relative to AAV9, Brain (Mouse)” value (brain; [2]) was 83.118 fold and the “Fold Enrichment relative to AAV9, Brain (NHP)” value [1, 3] was 76.072 fold. The “Fold Enrichment relative to AAV9, DRG (NHP)” value [1, 9] was 0.000 fold, the “Fold Enrichment relative to AAV9, DRG (NHP)” value ([1]; NGS fold-enrichment, NHP DRG) was 0.000 fold and the “Fold Enrichment relative to AAV9, Heart (NHP)” value ([1]; NGS fold-enrichment, NHP heart) was 0.000 fold. For the same sequence, the “Fold Enrichment relative to AAV9, Liver DNA (NHP)” value [1, 4] was 0.132 fold, the “Fold Enrichment relative to AAV9, Liver RNA (NHP)” value [1, 5] was 0.115 fold and the “Fold Enrichment relative to AAV9, Muscle (NHP)” value [1, 6] was 0.000 fold. The “Fold Enrichment relative to AAV9, Brain (NHP)” value [1, 10] was 76.072 fold, the “Fold Enrichment relative to AAV9, Heart (NHP)” value [1, 11] was 0.000 fold and the “Fold Enrichment relative to AAV9, Liver DNA (NHP)” value [1, 12] was 0.132 fold. The “Fold Enrichment relative to AAV9, Liver RNA (NHP)” value [1, 13] was 0.115 fold and the “Fold Enrichment relative to AAV9, Muscle (NHP)” value [1, 14] was 0.000 fold.

With KTENKSGSPHSKAQNQQT the “Fold Enrichment relative to AAV9, Brain (Mouse)” value (brain; [2]) was 31.182 fold, the “Fold Enrichment relative to AAV9, Brain (NHP)” value [1, 3] was 103.854 fold and the “Fold Enrichment relative to AAV9, DRG (NHP)” value ([1]; NGS fold-enrichment, NHP DRG) was 0.000 fold. For the same sequence, the “Fold Enrichment relative to AAV9, Heart (NHP)” value ([1]; NGS fold-enrichment, NHP heart) was 0.037 fold, the “Fold Enrichment relative to AAV9, Liver DNA (NHP)” value [1, 4] was 0.119 fold and the “Fold Enrichment relative to AAV9, Liver RNA (NHP)” value [1, 5] was 0.000 fold. For the same sequence, the “Fold Enrichment relative to AAV9, Muscle (NHP)” value [1, 6] was 0.000 fold.
